Measurements from ChEMBL document CHEMBL3091421, “Discovery of benzo[d]imidazo[5,1-b]thiazole as a new class of phosphodiesterase 10A inhibitors” (Bioorg Med Chem Lett, 2013).

Legend:
[1] = tested on: Rattus norvegicus; assay: Antipsychotic activity in Sprague-Dawley rat assessed as reduction in quipazine-induced head-twitches at 0.3 mg/kg, ip administered 15 mins prior to quipazine-challenge measured immediately relative to vehicle-treated control; type: functional; set-up: scale not given: the % may be the effect or the level left; settings: route intraperitoneal
[2] = tested on: Rattus norvegicus; assay: Antipsychotic activity in ip dosed Sprague-Dawley rat psychosis model assessed as inhibition of MK-801-induced stereotypy administered 5 mins prior to MK-801-challenge measured after 15 mins up to 1 hr relative to vehicle-treated control; type: functional, organism-based
[3] = tested on: Rattus norvegicus; assay: Antipsychotic activity in Sprague-Dawley rat psychosis model assessed as inhibition of MK-801-induced ataxia at 6 mg/kg, ip administered 5 mins prior to MK-801-challenge measured after 15 mins up to 1 hr relative to vehicle-treated control; type: functional; settings: route intraperitoneal
[4] = tested on: Rattus norvegicus; assay: Antipsychotic activity in Sprague-Dawley rat psychosis model assessed as inhibition of MK-801-induced hyperlocomotion at 30 mg/kg, po administered 5 mins prior to MK-801-challenge measured after 15 mins up to 1 hr; type: functional
[5] = Metabolic stability in human liver microsomes assessed as compound remaining after 60 mins; type: ADME; settings: read-out: Stability
[6] = species on record: Homo sapiens; assay: Selectivity ratio of IC50 for PDE7A1 (unknown origin) to IC50 for human recombinant PDE10A
[7] = target: cGMP-specific 3',5'-cyclic phosphodiesterase (Homo sapiens) (UniProt O76074); assay: Inhibition of PDE5A (unknown origin) using [3H]-cGMP as substrate at 10 uM after 30 mins by radiometric assay
[8] = tested on: Rattus norvegicus; assay: Antipsychotic activity in Sprague-Dawley rat psychosis model assessed as inhibition of MK-801-induced stereotypy at 1 mg/kg, ip administered 5 mins prior to MK-801-challenge measured after 15 mins up to 1 hr relative to vehicle-treated control; type: functional; settings: route intraperitoneal
[9] = tested on: Rattus norvegicus; assay: Antipsychotic activity in Sprague-Dawley rat psychosis model assessed as inhibition of MK-801-induced stereotypy at 6 mg/kg, ip administered 5 mins prior to MK-801-challenge measured after 15 mins up to 1 hr relative to vehicle-treated control; type: functional; settings: route intraperitoneal
[10] = target: cGMP-dependent 3',5'-cyclic phosphodiesterase (Homo sapiens) (UniProt O00408); assay: Inhibition of PDE2A (unknown origin) using cAMP as substrate at 10 uM after 30 mins by HTRF method
[11] = tested on: Rattus norvegicus; assay: Antipsychotic activity in Sprague-Dawley rat conditioned avoidance response model assessed as reduction in avoidance at 6 mg/kg, ip after 15 mins relative to vehicle-treated control; type: functional; set-up: scale not given: the % may be the effect or the level left; settings: route intraperitoneal
[12] = Plasma concentration in Sprague-Dawley rat at 10 mg/kg, po after 30 mins; type: ADME, organism-based; set-up: dose 10 mg/kg, route oral
[13] = Drug uptake in Sprague-Dawley rat brain at 10 mg/kg, po after 30 mins; type: ADME, organism-based; set-up: dose 10 mg/kg, route oral; settings: read-out: Drug uptake
[14] = species on record: Homo sapiens; assay: Selectivity ratio of IC50 for PDE4D (unknown origin) to IC50 for human recombinant PDE10A
[15] = tested on: Rattus norvegicus; assay: Antipsychotic activity in ip dosed Sprague-Dawley rat conditioned avoidance response model assessed as reduction in avoidance after 15 mins relative to vehicle-treated control; type: functional
[16] = tested on: Rattus norvegicus; assay: Antipsychotic activity in Sprague-Dawley rat psychosis model assessed as inhibition of MK-801-induced ataxia at 1 mg/kg, ip administered 5 mins prior to MK-801-challenge measured after 15 mins up to 1 hr relative to vehicle-treated control; type: functional; settings: route intraperitoneal
[17] = species on record: Homo sapiens; assay: Selectivity ratio of IC50 for PDE2A (unknown origin) to IC50 for human recombinant PDE10A
[18] = target: High affinity cGMP-specific 3',5'-cyclic phosphodiesterase 9A (Homo sapiens) (UniProt O76083); assay: Inhibition of PDE9A2 (unknown origin) using [3H]-cGMP as substrate at 10 uM after 30 mins by radiometric assay
[19] = tested on: Rattus norvegicus; assay: Antipsychotic activity in ip dosed Sprague-Dawley rat psychosis model assessed as inhibition of MK-801-induced ataxia administered 5 mins prior to MK-801-challenge measured after 15 mins up to 1 hr relative to vehicle-treated control; type: functional, organism-based
[20] = species on record: Homo sapiens; assay: Selectivity ratio of IC50 for PDE1A (unknown origin) to IC50 for human recombinant PDE10A
[21] = target: High affinity 3',5'-cyclic-AMP phosphodiesterase 7A (Homo sapiens) (UniProt Q13946); assay: Inhibition of PDE7A1 (unknown origin) using [3H]-cAMP as substrate at 10 uM after 30 mins by radiometric assay
[22] = target: cAMP and cAMP-inhibited cGMP 3',5'-cyclic phosphodiesterase 10A (Homo sapiens, UniProt Q9Y233); assay: Inhibition of human recombinant PDE10A using [3H]-cAMP/[3H]-cGMP as substrate after 30 mins by radiometric assay
[23] = Half life in Sprague-Dawley rat at 10 mg/kg, po by LC-MS/MS analysis; type: ADME, organism-based; set-up: dose 10 mg/kg, route oral; settings: in vivo
[24] = target: Dual specificity calcium/calmodulin-dependent 3',5'-cyclic nucleotide phosphodiesterase 1A (Homo sapiens) (UniProt P54750); assay: Inhibition of PDE1A (unknown origin) at 10 uM
[25] = target: Dual 3',5'-cyclic-AMP and -GMP phosphodiesterase 11A (Homo sapiens) (UniProt Q9HCR9); assay: Inhibition of PDE11A (unknown origin) using [3H]-cAMP as substrate at 10 uM after 30 mins by radiometric assay
[26] = tested on: Rattus norvegicus; assay: Antipsychotic activity in Sprague-Dawley rat assessed as reduction in quipazine-induced head-twitches at 1 mg/kg, ip administered 15 mins prior to quipazine-challenge measured immediately relative to vehicle-treated control; type: functional; set-up: scale not given: the % may be the effect or the level left; settings: route intraperitoneal
[27] = tested on: Rattus norvegicus; assay: Antipsychotic activity in Sprague-Dawley rat assessed as reduction in quipazine-induced head-twitches at 6 mg/kg, ip administered 15 mins prior to quipazine-challenge measured immediately relative to vehicle-treated control; type: functional; set-up: scale not given: the % may be the effect or the level left; settings: route intraperitoneal
[28] = tested on: Rattus norvegicus; assay: Antipsychotic activity in Sprague-Dawley rat psychosis model assessed as inhibition of MK-801-induced hyperlocomotion at 10 mg/kg, ip administered 5 mins prior to MK-801-challenge measured after 15 mins up to 1 hr; type: functional; settings: route intraperitoneal
[29] = tested on: Rattus norvegicus; assay: Antipsychotic activity in ip dosed Sprague-Dawley rat psychosis model assessed as inhibition of MK-801-induced locomotion administered 5 mins prior to MK-801-challenge measured after 15 mins up to 1 hr relative to vehicle-treated control; type: functional
[30] = tested on: Rattus norvegicus; assay: Antipsychotic activity in Sprague-Dawley rat psychosis model assessed as inhibition of MK-801-induced locomotion at 0.3 mg/kg, ip administered 5 mins prior to MK-801-challenge measured after 15 mins up to 1 hr relative to vehicle-treated control; type: functional; settings: route intraperitoneal
[31] = tested on: Rattus norvegicus; assay: Antipsychotic activity in ip dosed Sprague-Dawley rat assessed as reduction in quipazine-induced head-twitches administered 15 mins prior to quipazine-challenge measured immediately relative to vehicle-treated control; type: functional
[32] = Ratio of drug level in brain to plasma in Sprague-Dawley rat at 10 mg/kg, po after 30 mins; type: ADME, organism-based; set-up: dose 10 mg/kg, route oral; settings: brain and plasma, read-out: BPR
[33] = tested on: Rattus norvegicus; assay: Antipsychotic activity in Sprague-Dawley rat psychosis model assessed as inhibition of MK-801-induced locomotion at 1 mg/kg, ip administered 5 mins prior to MK-801-challenge measured after 15 mins up to 1 hr relative to vehicle-treated control; type: functional; settings: route intraperitoneal

Dual 3',5'-cyclic-AMP and -GMP phosphodiesterase 11A (Homo sapiens), sequence (Q9HCR9 whole entry, looked up): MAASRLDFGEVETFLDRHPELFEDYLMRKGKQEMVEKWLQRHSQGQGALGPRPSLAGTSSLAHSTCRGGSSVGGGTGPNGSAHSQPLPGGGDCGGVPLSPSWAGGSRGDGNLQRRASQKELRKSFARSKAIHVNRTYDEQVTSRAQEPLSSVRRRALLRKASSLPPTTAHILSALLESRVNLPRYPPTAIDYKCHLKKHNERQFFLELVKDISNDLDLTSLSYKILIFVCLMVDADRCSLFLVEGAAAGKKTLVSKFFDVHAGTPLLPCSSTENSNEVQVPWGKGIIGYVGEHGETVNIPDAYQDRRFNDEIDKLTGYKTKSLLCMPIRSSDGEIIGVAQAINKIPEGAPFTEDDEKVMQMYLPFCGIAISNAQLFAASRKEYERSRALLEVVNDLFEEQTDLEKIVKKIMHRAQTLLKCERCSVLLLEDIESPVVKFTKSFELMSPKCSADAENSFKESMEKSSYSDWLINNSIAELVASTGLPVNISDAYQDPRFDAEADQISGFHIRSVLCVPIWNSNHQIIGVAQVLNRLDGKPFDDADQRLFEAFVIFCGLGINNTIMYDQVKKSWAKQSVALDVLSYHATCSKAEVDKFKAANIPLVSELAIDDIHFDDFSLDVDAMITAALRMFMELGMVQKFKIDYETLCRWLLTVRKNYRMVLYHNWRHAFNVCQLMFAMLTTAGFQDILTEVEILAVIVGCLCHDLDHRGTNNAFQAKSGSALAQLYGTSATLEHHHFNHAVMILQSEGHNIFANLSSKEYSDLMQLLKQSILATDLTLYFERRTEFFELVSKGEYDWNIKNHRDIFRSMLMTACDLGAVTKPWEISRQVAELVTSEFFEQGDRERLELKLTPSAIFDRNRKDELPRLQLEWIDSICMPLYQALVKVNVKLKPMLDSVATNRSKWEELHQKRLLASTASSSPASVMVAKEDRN
cAMP and cAMP-inhibited cGMP 3',5'-cyclic phosphodiesterase 10A, sequence (Q9Y233 whole entry): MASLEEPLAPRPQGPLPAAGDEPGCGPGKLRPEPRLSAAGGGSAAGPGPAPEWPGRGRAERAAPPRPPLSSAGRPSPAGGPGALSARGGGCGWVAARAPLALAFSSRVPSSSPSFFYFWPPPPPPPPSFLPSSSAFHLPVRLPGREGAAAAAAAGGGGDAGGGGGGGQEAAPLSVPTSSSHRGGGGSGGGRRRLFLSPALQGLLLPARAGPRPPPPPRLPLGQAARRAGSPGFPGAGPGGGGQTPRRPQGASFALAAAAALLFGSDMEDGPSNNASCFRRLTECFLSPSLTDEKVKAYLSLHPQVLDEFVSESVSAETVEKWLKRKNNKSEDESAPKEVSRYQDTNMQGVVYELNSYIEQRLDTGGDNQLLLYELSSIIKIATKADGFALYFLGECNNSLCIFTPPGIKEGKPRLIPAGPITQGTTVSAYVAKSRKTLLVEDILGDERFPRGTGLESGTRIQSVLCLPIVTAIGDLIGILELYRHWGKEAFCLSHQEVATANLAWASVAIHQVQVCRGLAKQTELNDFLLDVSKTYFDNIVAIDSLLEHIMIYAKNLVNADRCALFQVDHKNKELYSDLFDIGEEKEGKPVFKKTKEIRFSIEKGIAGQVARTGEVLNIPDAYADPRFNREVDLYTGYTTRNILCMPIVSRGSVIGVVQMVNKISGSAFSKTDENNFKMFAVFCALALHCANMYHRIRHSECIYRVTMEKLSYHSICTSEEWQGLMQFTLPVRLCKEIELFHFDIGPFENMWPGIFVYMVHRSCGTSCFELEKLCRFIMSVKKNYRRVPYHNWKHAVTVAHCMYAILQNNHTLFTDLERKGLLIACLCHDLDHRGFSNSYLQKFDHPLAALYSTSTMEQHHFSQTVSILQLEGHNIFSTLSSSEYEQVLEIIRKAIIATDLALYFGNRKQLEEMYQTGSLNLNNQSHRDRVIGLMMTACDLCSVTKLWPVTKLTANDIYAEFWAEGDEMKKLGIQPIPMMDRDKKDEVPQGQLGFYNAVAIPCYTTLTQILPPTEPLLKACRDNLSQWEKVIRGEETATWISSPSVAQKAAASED
cGMP-dependent 3',5'-cyclic phosphodiesterase (Homo sapiens), sequence (O00408 whole entry): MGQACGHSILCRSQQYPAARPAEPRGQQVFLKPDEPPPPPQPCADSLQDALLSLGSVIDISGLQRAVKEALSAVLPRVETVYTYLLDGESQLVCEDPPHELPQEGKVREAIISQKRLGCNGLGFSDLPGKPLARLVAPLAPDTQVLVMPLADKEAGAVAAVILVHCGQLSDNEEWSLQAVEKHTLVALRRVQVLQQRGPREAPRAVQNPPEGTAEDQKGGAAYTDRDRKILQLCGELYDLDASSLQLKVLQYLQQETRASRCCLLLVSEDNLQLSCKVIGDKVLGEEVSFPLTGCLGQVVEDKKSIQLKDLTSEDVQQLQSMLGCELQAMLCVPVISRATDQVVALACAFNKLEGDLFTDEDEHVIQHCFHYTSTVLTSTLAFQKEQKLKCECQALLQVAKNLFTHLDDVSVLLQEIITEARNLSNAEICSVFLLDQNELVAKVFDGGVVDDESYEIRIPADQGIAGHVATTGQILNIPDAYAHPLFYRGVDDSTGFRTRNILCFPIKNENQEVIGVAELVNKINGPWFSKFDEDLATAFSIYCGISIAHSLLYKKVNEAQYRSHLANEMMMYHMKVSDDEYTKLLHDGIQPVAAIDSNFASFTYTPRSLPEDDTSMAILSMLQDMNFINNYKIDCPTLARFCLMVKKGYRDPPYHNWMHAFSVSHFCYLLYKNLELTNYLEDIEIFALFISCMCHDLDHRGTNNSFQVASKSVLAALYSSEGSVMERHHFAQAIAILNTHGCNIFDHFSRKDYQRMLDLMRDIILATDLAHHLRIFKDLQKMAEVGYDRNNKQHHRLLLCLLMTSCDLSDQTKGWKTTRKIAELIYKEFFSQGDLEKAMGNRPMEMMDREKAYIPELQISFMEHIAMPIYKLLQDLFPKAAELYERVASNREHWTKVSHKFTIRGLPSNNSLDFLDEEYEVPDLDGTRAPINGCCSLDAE
Dual specificity calcium/calmodulin-dependent 3',5'-cyclic nucleotide phosphodiesterase 1A (Homo sapiens), sequence (P54750 whole entry): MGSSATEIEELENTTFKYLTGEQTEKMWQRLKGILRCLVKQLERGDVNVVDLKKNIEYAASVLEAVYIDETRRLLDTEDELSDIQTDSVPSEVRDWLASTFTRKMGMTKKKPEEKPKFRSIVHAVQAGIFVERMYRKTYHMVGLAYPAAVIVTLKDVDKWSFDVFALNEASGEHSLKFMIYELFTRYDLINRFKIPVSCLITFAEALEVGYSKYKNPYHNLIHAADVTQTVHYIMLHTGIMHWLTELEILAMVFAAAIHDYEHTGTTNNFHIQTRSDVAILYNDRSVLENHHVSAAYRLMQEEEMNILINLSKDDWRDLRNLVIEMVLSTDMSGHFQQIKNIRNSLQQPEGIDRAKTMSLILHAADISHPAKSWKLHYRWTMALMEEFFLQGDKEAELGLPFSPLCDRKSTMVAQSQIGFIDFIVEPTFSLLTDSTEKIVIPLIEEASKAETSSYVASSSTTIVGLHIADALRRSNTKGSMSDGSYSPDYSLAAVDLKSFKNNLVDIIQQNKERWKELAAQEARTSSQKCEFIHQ
High affinity cGMP-specific 3',5'-cyclic phosphodiesterase 9A (Homo sapiens), sequence (O76083 whole entry): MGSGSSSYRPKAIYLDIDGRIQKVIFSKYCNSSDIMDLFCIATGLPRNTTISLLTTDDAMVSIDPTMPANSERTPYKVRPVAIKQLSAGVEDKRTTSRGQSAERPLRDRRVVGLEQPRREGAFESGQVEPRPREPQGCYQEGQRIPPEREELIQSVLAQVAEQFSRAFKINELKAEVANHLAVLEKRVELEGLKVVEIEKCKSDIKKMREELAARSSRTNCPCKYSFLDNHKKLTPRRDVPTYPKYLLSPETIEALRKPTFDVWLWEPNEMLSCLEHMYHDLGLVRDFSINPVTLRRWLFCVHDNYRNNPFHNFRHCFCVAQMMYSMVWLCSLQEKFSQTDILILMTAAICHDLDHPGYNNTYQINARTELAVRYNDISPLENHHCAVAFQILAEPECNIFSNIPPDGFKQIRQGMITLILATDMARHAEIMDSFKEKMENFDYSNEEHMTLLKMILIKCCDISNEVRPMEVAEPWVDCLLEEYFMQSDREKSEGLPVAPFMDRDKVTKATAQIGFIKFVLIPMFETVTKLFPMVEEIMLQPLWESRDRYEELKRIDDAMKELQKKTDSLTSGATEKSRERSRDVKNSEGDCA
High affinity 3',5'-cyclic-AMP phosphodiesterase 7A (Homo sapiens), sequence (Q13946 whole entry): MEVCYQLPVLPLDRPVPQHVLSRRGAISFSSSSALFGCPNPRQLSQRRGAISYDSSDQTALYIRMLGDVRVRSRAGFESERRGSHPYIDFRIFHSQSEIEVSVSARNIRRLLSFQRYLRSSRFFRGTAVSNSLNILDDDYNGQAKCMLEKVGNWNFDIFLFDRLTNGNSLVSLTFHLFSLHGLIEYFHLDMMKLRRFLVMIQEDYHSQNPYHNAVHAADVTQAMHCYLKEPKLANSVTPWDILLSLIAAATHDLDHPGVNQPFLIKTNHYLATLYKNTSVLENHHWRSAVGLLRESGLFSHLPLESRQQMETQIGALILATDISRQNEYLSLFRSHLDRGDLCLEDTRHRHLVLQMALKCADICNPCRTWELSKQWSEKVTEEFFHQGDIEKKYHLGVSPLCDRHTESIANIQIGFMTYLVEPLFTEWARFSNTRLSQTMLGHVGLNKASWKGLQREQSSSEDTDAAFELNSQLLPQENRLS

With `Cc1nc(C2CCOCC2)n2c1sc1cc(OCc3ccc4ccccc4n3)ccc12` the Activity [1] was 25%, the inhibition [2] was “Dose-dependent effect” and the inhibition in vivo at 6 mg/kg [3] was 46%. It also gave an inhibition in vivo at 30 mg/kg [4] of 75%, a remaining at 1 h [5] of 57% and a Ratio IC50 [6] greater than 500. The inhibition [7] was 45.5%, the inhibition in vivo at 1 mg/kg [8] was 27% and the inhibition in vivo at 6 mg/kg [9] was 69%. It also gave an inhibition [10] of 60.8%, an Activity [11] of 94% and a concentration at 0.5 h [12] of 370 ng/mL. The concentration at 0.5 h [13] was 672 ng/g, the Ratio IC50 [14] was greater than 500 and the Activity [15] was “Dose-dependent effect”. It also gave an ED50 ([15]; 0.25 h) of 1.6 mg/kg, an inhibition in vivo at 1 mg/kg [16] of 10% and a Ratio IC50 [17] greater than 500. The inhibition [18] was 16.5%, the inhibition [19] was “Dose-dependent effect” and the Ratio IC50 [20] was greater than 500. For the same compound, the inhibition [21] was 44%, the IC50 [22] was 7.45 nM and the half-life [23] was 2.1 h. The inhibition [24] was 62.4%, the inhibition [25] was 19.2% and the Activity [26] was 47%. The Activity [27] was 76%, the inhibition in vivo at 10 mg/kg [28] was 92% and the ED50 [29] was 1.44 mg/kg. For the same compound, the inhibition [29] was “Dose-dependent effect”, the inhibition in vivo at 0.3 mg/kg [30] was 13% and the ED50 [31] was 1.27 mg/kg. For the same compound, the Kp at 0.5 h [32] was 1.82 and the inhibition in vivo at 1 mg/kg [33] was 41%.
